In ChEMBL document CHEMBL3044550, “Insect antifeedant potent 6-substituted -bromo-2-naphthones” (2011):
Activity calls are given as the source filed them. The rule behind the calls is not given here.

test system: Achaea janata; assay: Antifeedant activity against Achaea janata L. fourth-instar larvae fed on 100 ppm compound pre-treated castor leaves for 24 hrs assessed total leaf disks consumed in 24 hrs by leaf disk bioassay; assay type: functional, organism-based

With `O=C(CBr)c1ccc2cc(Br)ccc2c1` the Activity was “Active”.

test system: Achaea janata; assay: Achaea janata L. fourth-instar larvae fed on 200 ppm compound pre-treated castor leaves for 24 hrs assessed total leaf disks consumed in 24 hrs by leaf disk bioassay; assay type: functional

In order of rising Activity:
1. O=C(CBr)c1ccc2cc(Br)ccc2c1  3.5
2. O=C(CBr)c1ccc2cc(O)ccc2c1  4
3. COc1ccc2cc(C(=O)CBr)ccc2c1  4
4. O=C(CBr)c1ccc2cc(Cl)ccc2c1  4.5
5. O=C(CBr)c1ccc2cc(F)ccc2c1  5
6. O=C(CBr)c1ccc2ccccc2c1  6.5
7. CSc1ccc2cc(C(=O)CBr)ccc2c1  8
8. Cc1ccc2cc(C(=O)CBr)ccc2c1  9
9. CS(=O)(=O)c1ccc2cc(C(=O)CBr)ccc2c1  9
